According to US7247317B2, “Compositions comprising phenylaminothiophenacetic acid derivatives for the treatment of acute or adult respiratory distress syndrome (ARDS) and infant respiratory distress syndrome (IRDS)” (Altana Pharma AG, priority 1998, dated 2007):

Test system: Sprague Dawley rats
Assay: Lung lavage model of ARDS in ventilated rats: arterial oxygen partial pressure (PaO2)
Type: in vivo, rat
Conditions: for PaO2: 120 min, mean ± SD
Excerpt: Anesthetized Sprague Dawley rats are artificially ventilated with pure oxygen and a positive endexiratory pressure (PEEP; in order to ensure oxygenation of the rats) and lavaged until their endogenous lung surfactant is washed out [D. Häfner, R. Beume, U. Kilian, G. Kraznai and Burkhard Lachmann: Dose-response comparison of five lung surfactant (LSF) preparations in an animal model of adult respiratory distress syndrome (ARDS); D. Häfner, P.-G. Germann, D. Hauschke, Pulmonary Pharmacology (1994) 7, 319-332]. This is manifested by the fact that in the animals the preliminary values of the arterial oxygen partial pressure (PaO2) of 500-550 mmHg (in the case of pure oxygen ventilation and PEEP) decrease to values of 50-110 mmHg. Animals of the control group which are not treated with lung surfactant remain with their PaO2 at these low values throughout the observation period. 60 minutes after the PaO2 has decreased to these values, lung surfactant or lung surfactant together with 4-(2,6-dichloroanilino)-3-thiopheneacetic acid is instilled intratracheally. The blood gases are determined 30, 60, 90 and 120 minutes after instillation.
In Table 1 below, in line A the average values (± standard deviation) of the PaO2 are indicated in mmHg for the time 120 minutes (constant PEEP of 8 cm H2O) after intratracheal instillation of lung surfactant 1 h after the last lavage. The table contains data about the values after a sole i.v. administration of 4-(2,6-dichloroanilino)-3-thiopheneacetic acid (Eltenac) in comparison to untreated controls. It can be seen from the table that the sole administration of Eltenac has no influence on the PaO2. This follows by comparison with the untreated control animals. The administration of lung surfactant (25 or 100 mg/kg) leads to a rise in the PaO2. […] In Table 2, in line A the PaO2 values after joint intratracheal (i.tr.) administration of lung surfactant together with Eltenac are indicated in increasing dosages. […]

O=C(O)Cc1cscc1Nc1c(Cl)cccc1Cl [Eltenac, 4-(2,6-dichloroanilino)-3-thiopheneacetic acid]
PaO2 (Eltenac i.tr. 3.0 mg/kg alone after last lavage): 92 ± 69 mmHg | PaO2 (Eltenac i.v. 22.1 mg/kg alone, directly after lavage, PEEP 8 cm H2O): 82 ± 35 mmHg | influence on the PaO2 (in words) (sole administration of Eltenac vs untreated control animals): no influence
